# Measured values from patent US9090944B2, “Biomarker DACT1 for gastric cancer” (The Chinese University of Hong Kong, priority 2011, dated 2015).
# Assays:
# AGS = test: Demethylation treatment with 5-Aza, DACT1 expression by semiquantitative RT-PCR; assay type: cell-based, human; details: 2 μM 5-Aza for 5 days
# Protocol: (§1) Semiquantitative RT-PCR was performed in a total volume of 25 μL reaction containing GeneAmp 1×PCR Buffer II (Applied Biosystems), 2.5 mM MgCl2, 200 μM each of dNTP, 200 nM each of primers, 0.5 U of AmpliTaq Gold DNA polymerase (Applied Biosystems) and 30˜50 ng cDNA. The PCR program started with an initial denaturation at 95° C. for 10 min, followed by 32-35 cycles (94° C. for 30 sec, annealing temperature for 30 sec, and 72° C. for 30 sec) of amplification, with a final extension at 72° C. for 10 min. The PCR bands were visualized under ultraviolet light and photographed. The expression of the target gene was normalized by the expression of house keeping gene β-actin, which served as an internal control. Cells were seeded at a density of […]/100-mm dishes and grew for 24 hr. Cells were then treated with 2 μM 5-aza-2′-deoxycytidine (“5-Aza”) (Sigma-Aldrich) for 5 days. The 5-Aza was replenished every day. The gene expression of DACT1 was evaluated using semiquantitative RT-PCR.
# KatoIII = test: as above; assay type: cell-based, human; details: 2 μM 5-Aza for 5 days
# Protocol: as §1
compound,measurement,setting,value
"Nc1ncn([C@H]2C[C@H](O)[C@@H](CO)O2)c(=O)n1 [5-Aza, 5-aza-2′-deoxycytidine]",DACT1 expression after demethylation treatment,AGS,restored DACT1 expression
same,DACT1 expression after demethylation treatment,KatoIII,restored DACT1 expression
